# In patent publication EP0745595A1, “3-(3-Aryloxyphenyl)-1-(substituted methyl)-s-triazine-2,4,6-oxo or thiotrione herbicidal agents” (American Cyanamid Company, priority 1995, dated 1996):
# How the values were obtained:
# Format in all cases: in vivo
# SAGITTARIA PYGMAEA, L. = experiment: Preemergence weed control under flooded paddy conditions, SAGPY (Arrowhead (Pygmaea)); settings: preemergence, 3-4 weeks after treatment
# How it was run: (§1)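 Seeds or propagules were planted 0.5 cm deep in silt loam, with flood water held at 1.5 to 3 cm. Compound in 50/50 aqueous/acetone was pipetted into the flood water at about 0.5, 0.25, 0.125 and 0.063 kg/ha. Injury was rated visually on a 0-9 scale against a control 3-4 weeks after treatment.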
# [1] = system: ORYZA SATIVA, L. TEBONNET; experiment: Preemergence herbicidal evaluation, ORYSAT (Rice, Tebonnet); settings: rated four to five weeks after treatment
# Source text: Results of herbicide evaluation are expressed on a rating scale (0-9). The scale is based upon a visual observation of plant stand, vigor, malformation, size, chlorosis and overall plant appearance as compared with a control.
# The preemergence herbicidal activity of the test compounds of the present invention is exemplified by the following tests in which the seeds of a variety of monocotyledonous and dicotyledonous plants are separately mixed with potting soil and planted on top of approximately one inch of soil in separate pint cups. […] The treated cups are then placed on greenhouse benches, watered and cared for in accordance with conventional greenhouse procedures. From four to five weeks after treatment, the tests are terminated and each cup is examined and rated according to the rating system provided in Example 40.
# The compounds evaluated are reported by compound number given in Example 40.
# CHENOPODIUM ALBUM, L. [2] = experiment: Preemergence herbicidal evaluation, CHEAL (Lambsquarters, Common); settings: rated four to five weeks after treatment
# How it was run: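 First, seeds in potting soil are sown atop soil in cups. Next, the surface is sprayed with test compound in aqueous acetone at roughly 0.125 to 0.50 kg per hectare. After four to five weeks of greenhouse care, each cup is scored 0-9 against a control.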
# CHENOPODIUM ALBUM, L. [3] = experiment: Postemergence herbicidal evaluation, CHEAL (Lambsquarters, Common)
# How it was run: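 Seedlings of common lambsquarters (Chenopodium album) were raised in jiffy flats for roughly two weeks, then sprayed postemergence through a nozzle at 40 psi with test compound dispersed in 50/50 acetone/water containing 0.5% TWEEN®20 surfactant. Plants were kept on greenhouse benches under standard care and rated visually on a 0-9 scale versus controls.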
# […], PRESL. = Preemergence weed control under flooded paddy conditions, MOOVA (Monochoria); settings: preemergence, 3-4 weeks after treatment
# How it was run: as §1
# [4] = system: CYPERUS SEROTINUS, ROTTB.; experiment: Preemergence weed control under flooded paddy conditions, CYPSE (Flatsedge); settings: preemergence, 3-4 weeks after treatment
# How it was run: as §1
# [5] = system: ORYZA SATIVA, L. TEBONNET; experiment: Rice tolerance to post-transplant applications under flooded paddy conditions, ORYSAT (Rice, Tebonnet); settings: post-transplant rice, 3-4 weeks after treatment
# How it was run: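 Two ten-day-old Tebonnet rice seedlings transplanted into silt loam, flooded 1.5–3 cm; three days later the water surface treated with compounds in acetone/water at about 0.5, 0.25, 0.125 and 0.063 kg/ha. Visual 0–9 injury rating versus control after 3–4 weeks in greenhouse.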
smiles,measurement,setting,value
"COC(=O)Cn1c(=O)n(C)c(=O)n(-c2cc(Oc3cc(Cl)c(Cl)cc3Cl)ccc2[N+](=O)[O-])c1=O [Compound 31, Methyl tetrahydro-3-methyl-5-[2-nitro-5-(2,4,5-trichlorophenoxy)phenyl]-2,4,6-trioxo-s-triazine-1(2H)-acetate]","Herbicidal effect rating, SAGPY","SAGITTARIA PYGMAEA, L.; 0.063 kg/ha",0.0
same,"Herbicidal effect rating, SAGPY","SAGITTARIA PYGMAEA, L.; 0.125 kg/ha",0.0
same,"Herbicidal effect rating, SAGPY","SAGITTARIA PYGMAEA, L.; 0.250 kg/ha",0.0
same,"Herbicidal effect rating, SAGPY","SAGITTARIA PYGMAEA, L.; 0.500 kg/ha",0.0
same,ORYSAT herbicidal rating,[1]; Rate 0.125 kg/ha,3.0
same,ORYSAT herbicidal rating,[1]; Rate 0.250 kg/ha,3.0
same,ORYSAT herbicidal rating,[1]; Rate 0.500 kg/ha,3.0
same,CHEAL herbicidal rating,"CHENOPODIUM ALBUM, L. [2]; Rate 0.125 kg/ha",9.0
same,CHEAL herbicidal rating,"CHENOPODIUM ALBUM, L. [2]; Rate 0.250 kg/ha",9.0
same,CHEAL herbicidal rating,"CHENOPODIUM ALBUM, L. [2]; Rate 0.500 kg/ha",9.0
same,CHEAL rating,"CHENOPODIUM ALBUM, L. [3]; Rate 0.125 kg/ha",7.0
same,CHEAL rating,"CHENOPODIUM ALBUM, L. [3]; Rate 0.250 kg/ha",7.0
same,CHEAL rating,"CHENOPODIUM ALBUM, L. [3]; Rate 0.500 kg/ha",7.0
same,"Herbicidal effect rating, MOOVA","[…], PRESL.; 0.063 kg/ha",0.0
same,"Herbicidal effect rating, MOOVA","[…], PRESL.; 0.125 kg/ha",0.0
same,"Herbicidal effect rating, CYPSE",[4]; 0.063 kg/ha,0.0
same,"Herbicidal effect rating, CYPSE",[4]; 0.125 kg/ha,0.0
same,"Herbicidal effect rating, CYPSE",[4]; 0.250 kg/ha,0.0
same,"Herbicidal effect rating, CYPSE",[4]; 0.500 kg/ha,0.0
same,"Herbicidal effect rating, ORYSAT",[5]; 0.063 kg/ha,0.0
same,"Herbicidal effect rating, ORYSAT",[5]; 0.125 kg/ha,0.0
same,"Herbicidal effect rating, ORYSAT",[5]; 0.250 kg/ha,1.0
same,"Herbicidal effect rating, ORYSAT",[5]; 0.500 kg/ha,2.0
